Laboratory results published in article PMC8122671, “New Succinimides with Potent Anticancer Activity: Synthesis, Activation of Stress Signaling Pathways and Characterization of Apoptosis in Leukemia and Cervical Cancer Cells” (International Journal of Molecular Sciences, 2021).
Entries after “also recorded” stand apart in the source; their conditions may differ. Read-outs that look alike come from different tables or passages of the source.

How the values were obtained:
[1] = system: plasmid DNA (pcDNA3.1HisC); experiment: DNA-cleavage protection assay (BamHI digestion of plasmid DNA); type: biochemical; conditions: 100 µM, overnight 37 °C, then BamHI 3 h
Protocol: A DNA-cleavage protection assay has been successfully used for the identification of compounds that bind DNA either covalently or noncovalently. Such binding may result in DNA being less susceptible to enzymatic cleavage. […] It was also reported that naphtalenoimides or indolomaleimides intercalate into DNA [13, 14]. […] In CD studies, a synthetic 23-nt duplex DNA or bovine thymus DNA was incubated with compound Ic or daunorubicin (reference compound). […] Using a DNA-cleavage protection assay, we investigated whether selected compounds 2c, 2d, and 2f and 3c, 3d, and 3f interact with a plasmid DNA, resulting in increased resistance to endonucleolytic cleavage. Plasmid DNA (pcDNA3.1HisC) containing a single BamHI cleavage site was incubated with test compounds and subsequently digested with BamH1 restriction endonuclease. Daunorubicin (a strong DNA-intercalating agent) was used as a reference compound. Non-digested plasmid DNA existed predominantly in the circular form; however, the superhelical and linear forms were also detected (Figure 5, lane 1). […] This observation can be explained by the higher lipophilicity of 3c, 3d, and 3f compared to 2c, 2d, and 2f, which may facilitate their more efficient binding to DNA.
First, 0.5 μg of plasmid DNA (pcDNAHisC, total length 5.5 kbp) containing a unique BamHI restriction site was dissolved in a 1× BamHI reaction buffer and incubated overnight at 37 °C with the test compounds or daunorubicin. Daunorubicin, a strong intercalating agent, was used as a positive control. The concentration of the test compounds and daunorubicin samples was 100 µM. In the next step, the reaction mixtures were digested with BamHI restriction endonuclease (2 U/μL) for 3 h at 37 °C. The total reaction volume was 10 μL. Products of the reaction were subjected to the 1% agarose gel electrophoresis in TBE buffer. The gel was stained with ethidium bromide, and DNA fragments were visualized under a UV lamp (GBox, Syngene).

[2] = system: caspase 3/7 in K562 cells; experiment: Caspase-3/7 activity assay (Apo-ONE) in K562 cells; type: cell-based, human; conditions: K562, 18 h, test compound at 5xIC50, staurosporine 1 μM; vs 1% DMSO
Protocol: After incubation for 18 h, K562 cells were lysed and the activity of caspase 3/7 was measured using a profluorescent peptide substrate.
First, 20 × 10^3 K562 cells were seeded on each well of a 96-well plate in RPMI 1640 medium supplemented with 10% fetal calf serum and antibiotics. Cells were grown for 24 h at 37 °C and 5% CO2. Test dicarboximides were dissolved in DMSO and added to cell culture to the final concentration of 5 × IC50. […] Cells were exposed to test compounds for 18 h at 37 °C and 5% CO2. Subsequently, the activity of caspase 3 and 7 was measured by Apo-ONE® Homogeneous Caspase-3/7 Assay (Promega, Madison, WI, USA) according to the manufacturer’s instructions. Briefly, the cells were lysed and incubated for 1.5 h with a profluorescent substrate for caspase 3 and 7. Next, the fluorescence was read at an excitation wavelength of 485 nm and emission of 520 nm with a FLUOStar Omega microplate reader (BMG-Labtech, Offenburg, Germany).

[3] = system: HeLa (human cervix carcinoma) cells; experiment: MTT cytotoxicity assay, HeLa; type: cell-based; conditions: 48 h incubation, average (SD) of three experiments, read-out: IC50 HeLa
Protocol: (§1) The cytotoxicity of new derivatives of dicarboximides was tested in HeLa (cervix carcinoma cell line), K562 (myelogenous leukemia cell line), MOLT-4 (Human T-Lymphoid Cell Line), and HUVEC (normal endothelial) cells. First, the viability of cells was determined after 48 h incubation with the screened compounds used at the concentration of 100 μM (data not shown). […] Cells exposed to 1% DMSO (as vehicle) served as the control with 100% survival.
(§2) Human umbilical vein endothelial cells (Life Technologies, Carlsbad, CA, USA) were cultured (according to the manufacturer’s instructions) in Medium 200 containing low serum growth supplement; 1 × 10^4 cells were seeded on each well on a 96-well plate (Nunc, Roskilde, Denmark). The HeLa (human cervix carcinoma), K562, and MOLT-4 (leukemia) cells were cultured in RPMI 1640 medium supplemented with antibiotics and 10% fetal calf serum in a 5% CO2–95% air atmosphere; 7 × 10^3 cells were seeded on each well on a 96-well plate (Nunc). Twenty-four hours later, cells were exposed to the test compounds for additional 48 hours. Stock solutions of test compounds were freshly prepared in DMSO. The final concentrations of the compounds tested in the cell cultures were 2 × 10^−1, 1 × 10^−1, 5 × 10^−2, 1 × 10^−2, 1 × 10^−3, and 1 × 10^−4 mM. The concentration of DMSO in the cell culture medium was 1%. The values of IC50 (the concentration of test compound required to reduce the cell survival fraction to 50% of the control) were calculated from dose–response curves and used as a measure of cellular sensitivity to a given treatment. The cytotoxicity of all compounds was determined by the MTT [3-(4,5-dimethylthiazol-2-yl)-2,5-diphenyltetrazolium bromide; Sigma, St. Louis, MO, USA] assay. Briefly, after 24 or 48 h of incubation with drugs, the cells were treated with the MTT reagent, and incubation was continued for 2 h. MTT-formazan crystals were dissolved in 20% SDS and 50% DMF at pH 4.7, and absorbance was read at 570 and 650 nm on a microplate reader FLUOstar Omega (BMG Labtech, Offenburg, Germany). As a control (100% viability), we used cells grown in the presence of the vehicle (1% DMSO) only.

[4] = system: HUVEC (normal endothelial) cells; experiment: MTT cytotoxicity assay, HUVEC; type: cell-based; conditions: Homo sapiens, 48 h incubation, average (SD) of three experiments, read-out: IC50 HUVEC
Protocol: as §1, §2

[5] = system: MOLT-4 (Human T-Lymphoid Cell Line); experiment: MTT cytotoxicity assay, MOLT-4; type: cell-based; conditions: MOLT-4, 48 h incubation, average (SD) of three experiments, read-out: IC50 MOLT-4
Protocol: as §1, §2

[6] = system: K562 (myelogenous leukemia cell line); experiment: MTT cytotoxicity assay, K562; type: cell-based, human; conditions: 48 h incubation, average (SD) of three experiments, read-out: IC50 K562
Protocol: as §1, §2

[7] = MTT cytotoxicity assay, cancer cell lines taken together (HeLa, K562, MOLT-4); type: cell-based; conditions: human, K562 and MOLT-4 cancer cells
Protocol: The cytotoxicity of new derivatives of dicarboximides was tested in HeLa (cervix carcinoma cell line), K562 (myelogenous leukemia cell line), MOLT-4 (Human T-Lymphoid Cell Line), and HUVEC (normal endothelial) cells. First, the viability of cells was determined after 48 h incubation with the screened compounds used at the concentration of 100 μM (data not shown). For compounds that reduced the viability of cancer cells by more than 50%, the IC50 values were determined (Table 2). Cells exposed to 1% DMSO (as vehicle) served as the control with 100% survival.
Human umbilical vein endothelial cells (Life Technologies, Carlsbad, CA, USA) were cultured (according to the manufacturer’s instructions) in Medium 200 containing low serum growth supplement; 1 × 10^4 cells were seeded on each well on a 96-well plate (Nunc, Roskilde, Denmark). […] The cytotoxicity of all compounds was determined by the MTT [3-(4,5-dimethylthiazol-2-yl)-2,5-diphenyltetrazolium bromide; Sigma, St. Louis, MO, USA] assay. […] MTT-formazan crystals were dissolved in 20% SDS and 50% DMF at pH 4.7, and absorbance was read at 570 and 650 nm on a microplate reader FLUOstar Omega (BMG Labtech, Offenburg, Germany). […]

O=C1C2C(C(=O)N1CC(O)CN1CCCCC1)C1(c3ccccc3)CC2(c2ccccc2)C(c2ccccc2)=C1c1ccccc1 (stereo not shown) [3f, 4-[2-hydroxy-3-(piperidin-1-yl)propyl]-1,7,8,9-tetraphenyl-4-azatricyclo[5.2.1.0^2,6]dec-8-ene-3,5-dione]
protection of plasmid DNA from BamHI digestion (circular DNA left) [1]: interaction seems to be stronger | activity of caspase 3/7 [2]: activated caspase 3/7 to a lesser extent; also recorded: activated caspase 3 and 7 | IC50 [3]: 3 µM | IC50 [4]: 0.4 µM | IC50 [5]: 3 µM | IC50 [6]: 3 µM | IC50 ([6]; Homo sapiens, K562, 48 h): < 6 µM

CN[C@@H]1C[C@H]2O[C@@](C)([C@@H]1OC)n1c3ccccc3c3c4c(c5c6ccccc6n2c5c31)C(=O)NC4 [staurosporine, reference compound]
activity of caspase 3/7 [2]: strongly activated caspase 3/7 | viability at 48 h, 1 µM [7]: 44 to 49%

CC12C(=O)C(C)(C(c3ccccc3)=C1c1ccccc1)C1C(=O)N(CCO)C(=O)C12 (stereo not shown) [compound 4, 4-(2-hydroxyethyl)-1,7-dimethyl-8,9-diphenyl-4-azatricyclo[5.2.1.0^2,6]dec-8-ene-3,5,10-trione]
melting point: 186 to 187 °C | IC50 [3]: 61 µM | IC50 [4]: 56 µM | IC50 [5]: 71 µM | IC50 ([6]; Homo sapiens, K562, 48 h): 105 µM

CCC12C(=O)C(CC)(C(c3ccccc3)=C1c1ccccc1)C1C(=O)N(CC(O)CN3CCCCC3)C(=O)C12 (stereo not shown) [2f, 4-[2-hydroxy-3-(piperidin-1-yl)propyl]-1,7-diethyl-8,9-diphenyl-4-azatricyclo[5.2.1.0^2,6]dec-8-ene-3,5,10-trione]
protection of plasmid DNA from BamHI digestion (circular DNA left) [1]: the circular form was also detected | activity of caspase 3/7 [2]: over eight-fold increase in caspase activity; also recorded: activated caspase 3 and 7 | IC50 [3]: 5.1 µM | IC50 [4]: 3.1 µM | IC50 [5]: 3.4 µM | IC50 [6]: 3.9 µM | IC50 ([6]; Homo sapiens, K562, 48 h): < 6 µM

COc1cccc2c1C(=O)c1c(O)c3c(c(O)c1C2=O)C[C@@](O)(C(C)=O)C[C@@H]3O[C@H]1C[C@H](N)[C@H](O)[C@H](C)O1 [daunorubicin, reference compound]
protection of plasmid DNA from BamHI digestion (circular DNA left) [1]: prevented linearization of DNA
